# Measured values from publication PMC5929572, “Nucleobases and corresponding nucleosides display potent antiviral activities against dengue virus possibly through viral lethal mutagenesis” (PLoS Neglected Tropical Diseases, 2018).
# Experiments:
# DENV-2 [1] = assay: Virus passage in presence of compound, supernatant titer by plaque assay; type: cell-based, DENV-2 New Guinea C strain; settings: 3b 500 μM, Huh-7, passages 4 and 5; limit of detection 3.3 pfu/mL
# Procedure: Huh-7 cells were seeded in 12-well plates at a density of 4×10^5 cells per well in 1 mL culture medium. The next day, cells were washed and inoculated with DENV at a multiplicity of infection (m.o.i.) of 0.2 in 500μl infection medium (MEM containing 2% FBS and 10 mM HEPES). The inoculum was removed after 1h, cells were washed with PBS and then incubated in 1 mL MEM, 2% FBS, 1% pen/strep plus compound for 72 h. Viral supernatants were clarified by centrifugation for 5 min at 1500×g and aliquoted and stored at -80°C. Viral titers were determined using a plaque assay on Vero cells. Briefly, confluent Vero cell monolayers in 24-well plates were incubated at 37°C for 1 h with duplicate 300 μl samples of 10-fold serial dilutions of viral supernatants. The cells were then washed to remove unbound viral particles and overlaid with 500ul MEM containing 1.3% methylcellulose, 5% FBS and 10mM HEPES. […] Infectious virus titer (pfu/mL) was determined using the following formula: number of plaques × dilution factor × (1/inoculation volume). […]
# (§1) Virus was passaged on Huh-7 cells supplemented with 200 μM 3a, 500 μM 3b or DMSO (0.5%). […] The virus titer in the harvested supernatant was determined by plating ten-fold serial dilutions onto single wells of a 24-well plate. […] Supernatant titer was determined from a single well where there were approximately 20–50 plaques when possible. […]
# [2] = Cell viability assay (MTS) in Huh-7 cells; type: cell-based; settings: human
# Procedure: The sensitivity of the cell lines to the compounds was examined using the 3-(4,5-dimethylthiazol-2-yl)-5-(3-carboxymethoxyphenyl)-2-(4-sulfophenyl)-2H-tetrazolium (MTS)-based tetrazolium reduction CellTiter 96 Aqueous Non-Radioactive cell proliferation assay (Promega G5430). The compounds were initially tested at 10 and 50 μM final concentrations. Each plate also contained DMSO alone, medium alone, and an inhibitory compound, 6. DENV replicon or Huh-7 cells were plated at a density of 1,500 or 8 × 10^3 cells, respectively, per well in 96-well plates containing 100 μl of culture medium overnight. Compounds were added to triplicate wells in culture medium and incubated for an additional 72 h. MTS reagent was then added to each well and incubated at 37°C in a humidified 5% CO2 atmosphere. The plates were read at various time points at a wavelength of 490 nm using a Molecular Devices M5e plate reader. Mean values of triplicate wells were determined and compared to the mean value for the wells that received DMSO alone. For compounds selected for dose-response experiments, the CC50 was determined by comparing cell viability for eight serial dilutions of the compound and DMSO treated cells using GraphPad Prism software.
# [3] = Cell viability assay (MTS) in DENV replicon cells; type: cell-based, baby hamster; settings: hamster, DENV replicon cells (BHK pD2-hRucPac-2ATG30), DENV replicon BHK cells, MTS, 72 h
# DENV-2 [4] = assay: Sequence analysis of prM/E region clones from passaged virus (mutation frequency); type: cell-based, DENV-2 New Guinea C strain
# Procedure: For qPCR determination of viral genome copy number, viral RNA was isolated from 140 μL of drug-treated or DMSO-treated infected culture supernatant using QIAamp Viral RNA mini kit (Qiagen), following manufacturer’s protocol. Viral RNA was quantified using the TaqMan RNA-to-CT 1-Step qPCR Kit (Applied Biosystems). Primers used for qPCR were 5’-[…]-3’ (forward) and 5’-[…]-3’ (reverse) amplifying a region numbering 8928–8988 in the genome (numbering starting from the beginning of genome, accession number KM204118). The qPCR FAM probe sequence is 5’-[…]-3’. Serial 10-fold dilutions of plasmid containing the NS5 gene of DENV were used to generate a standard curve for the quantification of viral RNA genome copy number based on cycle threshold (CT) values. The limit of detection for NS5 plasmid dilutions was 30 copies (S1 Fig). […] Statistical analysis via GraphPad Prism 5 software. To obtain sequence data from viral RNA isolated at each passage, cDNA was generated via M-MLV reverse transcriptase and random hexamers (New England Biolab Inc.) per manufacturer’s instructions. An approximately 1600-base fragment covering membrane protein (prM) and envelop protein gene (E) of DENV-2 viral genome was amplified using PfuUltra II Fusion HS DNA polymerase (Agilent) with primers prMEfor (5'- […]-3') and prMErev (5'- […] -3'). PCR products were purified using Qiaquick PCR purification kit (Qiagen) and then digested with EcoRI and ligated into pcDNA3.1 for sequencing. Sequence for approximately 40–50 individual clones per sample was obtained from the University of Minnesota Genomics Center. Sequences were aligned over a 980-base region that had adequate quality sequencing reads for all clones. Only mutations present in both the forward and reverse reads of a clone were counted. All incidence-based determinants of mutation frequency (Mf min, Mf max, Mfe) were calculated as described.
# Virus was passaged on Huh-7 cells supplemented with 200 μM 3a, 500 μM 3b or DMSO (0.5%). Huh-7 cells were seeded in 12-well plates and inoculated with DENV-2 as described for Titer reduction experiments above except an m.o.i. of 0.01 was used. After 3 days of compound treatment, 50 μL of the harvested supernatant was used to inoculate fresh Huh-7 cells in the continued presence of compound. The virus titer in the harvested supernatant was determined by plating ten-fold serial dilutions onto single wells of a 24-well plate. The wells were washed and overlaid as described in the Titer reduction assay above. If no plaques were obtained in any of the harvested supernatant dilutions, the undiluted supernatant was used. If plaques were not detectable, the virus titer was considered to be at the limit of detection, 1 plaque (3.3 pfu/mL). Supernatant titer was determined from a single well where there were approximately 20–50 plaques when possible. This experiment was repeated three times at the compound concentrations listed.
# DENV-2 [5] = assay: Titer reduction assay in Huh-7 cells, plaque assay on Vero cells; type: cell-based, DENV-2 New Guinea C strain; settings: Dengue virus, DENV2, m.o.i. 0.2, 72 h
# Procedure: Huh-7 cells were seeded in 12-well plates at a density of 4×10^5 cells per well in 1 mL culture medium. The next day, cells were washed and inoculated with DENV at a multiplicity of infection (m.o.i.) of 0.2 in 500μl infection medium (MEM containing 2% FBS and 10 mM HEPES). The inoculum was removed after 1h, cells were washed with PBS and then incubated in 1 mL MEM, 2% FBS, 1% pen/strep plus compound for 72 h. Viral supernatants were clarified by centrifugation for 5 min at 1500×g and aliquoted and stored at -80°C. Viral titers were determined using a plaque assay on Vero cells. Briefly, confluent Vero cell monolayers in 24-well plates were incubated at 37°C for 1 h with duplicate 300 μl samples of 10-fold serial dilutions of viral supernatants. The cells were then washed to remove unbound viral particles and overlaid with 500ul MEM containing 1.3% methylcellulose, 5% FBS and 10mM HEPES. After 5 days of incubation at 37°C and 5% CO2, cells were washed with PBS, fixed, and stained using 1% Giemsa. Infectious virus titer (pfu/mL) was determined using the following formula: number of plaques × dilution factor × (1/inoculation volume). The viral titer was presented as the mean of duplicate samples from a dilution yielding approximately 20–50 plaques per well.
# DENV-2 [6] = assay: Virus passage in presence of compound, genome copy number by RT-qPCR (NS5); type: cell-based, DENV-2 New Guinea C strain; settings: 3b 500 μM, Huh-7, passage 5; limit of detection 30 copies
# Procedure: For qPCR determination of viral genome copy number, viral RNA was isolated from 140 μL of drug-treated or DMSO-treated infected culture supernatant using QIAamp Viral RNA mini kit (Qiagen), following manufacturer’s protocol. Viral RNA was quantified using the TaqMan RNA-to-CT 1-Step qPCR Kit (Applied Biosystems). Primers used for qPCR were 5’-[…]-3’ (forward) and 5’-[…]-3’ (reverse) amplifying a region numbering 8928–8988 in the genome (numbering starting from the beginning of genome, accession number KM204118). The qPCR FAM probe sequence is 5’-[…]-3’. Serial 10-fold dilutions of plasmid containing the NS5 gene of DENV were used to generate a standard curve for the quantification of viral RNA genome copy number based on cycle threshold (CT) values. […] Sequences were aligned over a 980-base region that had adequate quality sequencing reads for all clones. Only mutations present in both the forward and reverse reads of a clone were counted. All incidence-based determinants of mutation frequency (Mf min, Mf max, Mfe) were calculated as described.
# as §1
# [7] = system: DENV replicon cells (BHK pD2-hRucPac-2ATG30); assay: Cell viability assay (MTS) in DENV replicon cells; type: cell-based, baby hamster
# DENV-2 viral replicon = assay: microbe, parasite or virus in culture; type: cell-based; settings: Dengue virus, DENV2, BHK, 72 h
# Procedure: Compounds were evaluated for antiviral properties using BHK cells containing a DENV-2 viral replicon. 1.5 × 10^3 replicon-containing cells per well were plated in white opaque 96-well plates in the absence of antibiotic selection and the next day, compounds dissolved in DMSO were added to triplicate wells in culture medium. The compounds were initially tested at 10 and 50 μM final concentrations and each plate also contained DMSO alone, medium alone, and 6. Three days later, medium was replaced with a 1:1000 dilution of ViVi-Ren Live Cell Substrate (Promega) in DME minus phenol red and 10% FBS. Luminescence was measured with a Molecular Devices M5e plate reader. Mean values of triplicate wells were determined and compared to the mean value for the wells that received DMSO alone. […] The EC50 was determined by comparing luciferase activity for eight serial dilutions of the compound and DMSO treated cells using GraphPad Prism software.
# [8] = passage 2, 3a 200 μM, 3b 500 μM, Huh-7
# [9] = passage 3, 3a 200 μM, 3b 500 μM, Huh-7
structure (smiles),measurement,setting,value
NC(=O)c1nccn([C@@H]2O[C@H](CO)[C@@H](O)[C@H]2O)c1=O [Compound 3b],infectious virus in supernatant,DENV-2 [1],undetectable
same,CC50 at 72 h,[2],> 1000 µM
same,CC50 at 72 h,[3],> 1000 µM
same,number of mutations per clone compared to DMSO,"DENV-2 [4]; 3a 200 μM passage 4, 3b 500 μM passage 3, p < 0.0001, Mann-Whitney U",significant difference
same,Mf max (maximum mutation frequency),DENV-2 [4]; [8],"15.3 per 10,000 nucleotides"
same,Mf min (minimum mutation frequency),DENV-2 [4]; [8],"10.7 per 10,000 nucleotides"
same,Mfe (entity level mutation frequency),DENV-2 [4]; [8],2.4 ×10^−3
same,Number of clones with mutation/total,DENV-2 [4]; [8],22/34
same,Number of different mutations,DENV-2 [4]; [8],33
same,Number of haplotypes,DENV-2 [4]; [8],22
same,Number of total mutations,DENV-2 [4]; [8],47
same,"Transition A→G, number of mutations",DENV-2 [4]; [8],6
same,"Transition C→U, number of mutations",DENV-2 [4]; [8],4
same,"Transition G→A, number of mutations",DENV-2 [4]; [8],6
same,"Transition U→C, number of mutations",DENV-2 [4]; [8],14
same,"Transversion G→U, number of mutations",DENV-2 [4]; [8],2
same,"Transversion U→G, number of mutations",DENV-2 [4]; [8],1
same,Mf max (maximum mutation frequency),DENV-2 [4]; [9],"15.8 per 10,000 nucleotides"
same,Mf min (minimum mutation frequency),DENV-2 [4]; [9],"4.7 per 10,000 nucleotides"
same,Mfe (entity level mutation frequency),DENV-2 [4]; [9],2.2 ×10^−3
same,Number of clones with mutation/total,DENV-2 [4]; [9],22/35
same,Number of different mutations,DENV-2 [4]; [9],15
same,Number of haplotypes,DENV-2 [4]; [9],17
same,Number of total mutations,DENV-2 [4]; [9],50
same,"Transition A→G, number of mutations",DENV-2 [4]; [9],4
same,"Transition C→U, number of mutations",DENV-2 [4]; [9],6
same,"Transition G→A, number of mutations",DENV-2 [4]; [9],1
same,"Transition U→C, number of mutations",DENV-2 [4]; [9],3
same,"Transversion U→A, number of mutations",DENV-2 [4]; [9],1
same,EC50,DENV-2 [5],60 ± 22 µM
same,genomic RNA in supernatant,DENV-2 [6],undetectable
"Nc1nc(N)c2[nH]cnc2n1 [Compound 4a, 2,6-diaminopurine]",CC50 at 72 h,[3],13 ± 2.1 µM
"Nc1nc(N)c2ncn([C@@H]3O[C@H](CO)[C@@H](O)[C@H]3O)c2n1 [Compound 4b, 2-Aminoadenosine]","toxicity, in words",[7]; DENV replicon cells,too toxic
same,CC50 at 72 h,[3],31 ± 1.4 µM
"NC(=O)c1nc(F)c[nH]c1=O [Compound 5a, 6-fluoro-3-hydroxypyrazine-2-carboxamide, reference compound]",EC50,DENV-2 viral replicon,110 ± 30 µM
same,CC50,"[7]; DENV replicon BHK cells, MTS, 72 h",> 665 µM
same,CC50 at 72 h,[3],> 1000 µM
"COc1c(C)c2c(c(O)c1C/C=C(\C)CCC(=O)O)C(=O)OC2 [Compound 6, mycophenolic acid, reference compound]",EC50,DENV-2 viral replicon,0.3 ± 0.03 µM
same,CC50 at 72 h,[3],1.4 ± 0.4 µM
